# In US6906094B2, “1,2,4-tribsubstituted benzenes as inhibitors of 15-lipoxygenase” (Warner-Lambert Company, priority 2000, dated 2005):
# Tests used:
# [1] = target: T1, rabbit reticulocyte 15-LO (Oryctolagus cuniculus, UniProt P12530); test: Rabbit Reticulocyte 15-LO Assay (H15LO); assay type: biochemical; settings: 2 U rabbit reticulocyte 15-LO, 174 μM linoleic acid, 15 minutes at 4° C., 13-HODE quantitated
# T1 construct: 15-LO is obtained from phenylhydrazine-treated rabbits and purified according to the method of Rapoport; from tissue; host or cells: reticulocytes of phenylhydrazine-treated rabbits
# T1 sequence (P12530 1-663): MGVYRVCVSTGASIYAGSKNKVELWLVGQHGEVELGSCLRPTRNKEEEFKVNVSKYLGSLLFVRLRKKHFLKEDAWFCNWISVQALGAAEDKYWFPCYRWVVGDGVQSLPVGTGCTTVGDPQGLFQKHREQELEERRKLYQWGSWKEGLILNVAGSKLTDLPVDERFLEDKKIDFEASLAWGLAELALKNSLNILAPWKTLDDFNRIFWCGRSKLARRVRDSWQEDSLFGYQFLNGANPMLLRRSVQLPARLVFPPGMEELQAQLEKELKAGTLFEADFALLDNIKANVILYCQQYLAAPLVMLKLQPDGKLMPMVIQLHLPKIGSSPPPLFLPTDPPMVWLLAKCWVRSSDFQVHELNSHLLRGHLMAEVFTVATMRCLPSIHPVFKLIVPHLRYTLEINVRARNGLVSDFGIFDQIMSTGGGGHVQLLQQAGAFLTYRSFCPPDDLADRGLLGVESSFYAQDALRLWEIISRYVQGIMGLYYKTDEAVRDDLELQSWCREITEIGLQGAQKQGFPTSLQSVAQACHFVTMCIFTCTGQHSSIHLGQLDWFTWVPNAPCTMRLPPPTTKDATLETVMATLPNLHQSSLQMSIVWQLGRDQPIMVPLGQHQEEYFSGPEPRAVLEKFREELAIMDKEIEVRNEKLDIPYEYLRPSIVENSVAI
# Outline: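 Rabbit reticulocyte 15-LO purified from phenylhydrazine-treated rabbits; 2 U enzyme incubated with 174 μM linoleic acid and test compound for 15 min at 4° C in PBS with 0.2% sodium cholate. Reaction stopped with mobile phase and triethyl phosphite; 13-HODE product quantitated by peak area against an authentic 13-HODE standard curve.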
# human 15-LO = target: T2, human 15-LO (Homo sapiens, UniProt P16050); test: Human Lysate 15-LO Assay (HUM15LO); assay type: biochemical; settings: recombinant human 15-LO, 174 μM linoleic acid, 15 minutes at 4° C., 13-HODE quantitated
# T2 construct: made in house; host or cells: Sf9 insect cells (baculovirus, Bac-to-Bac)
# T2 sequence (P16050 1-662): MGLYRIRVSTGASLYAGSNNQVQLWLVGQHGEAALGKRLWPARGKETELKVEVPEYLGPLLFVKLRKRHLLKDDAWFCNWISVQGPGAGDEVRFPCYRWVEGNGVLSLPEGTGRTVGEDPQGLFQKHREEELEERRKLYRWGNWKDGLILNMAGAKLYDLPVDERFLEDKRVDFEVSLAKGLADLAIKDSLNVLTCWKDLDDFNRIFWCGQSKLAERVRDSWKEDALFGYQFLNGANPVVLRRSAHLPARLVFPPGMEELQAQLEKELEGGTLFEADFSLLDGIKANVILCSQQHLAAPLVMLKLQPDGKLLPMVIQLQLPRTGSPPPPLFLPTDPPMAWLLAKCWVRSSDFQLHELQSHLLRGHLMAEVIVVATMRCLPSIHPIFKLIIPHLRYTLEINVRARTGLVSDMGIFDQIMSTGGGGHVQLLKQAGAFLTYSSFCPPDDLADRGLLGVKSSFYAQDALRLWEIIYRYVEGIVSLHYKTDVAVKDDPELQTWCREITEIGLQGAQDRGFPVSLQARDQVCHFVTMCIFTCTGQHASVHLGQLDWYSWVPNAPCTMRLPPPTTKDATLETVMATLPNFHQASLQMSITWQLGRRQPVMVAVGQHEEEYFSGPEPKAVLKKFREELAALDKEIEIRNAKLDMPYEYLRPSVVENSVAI
# Outline: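 Baculovirus-expressed recombinant enzyme incubated with compound and 174 μM linoleic acid in PBS with 0.2% sodium cholate, 15 min at 4° C. 13-HODE product quantitated against an authentic standard curve. Percent inhibition derived relative to a compound-free control reaction.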
melting point [°C],IC50 [1] [nM],IC50 (human 15-LO) [nM],SMILES
178 to 181,44,54,"CCOCCOC(=O)NS(=O)(=O)Nc1cc(-c2cc3cc(F)c(F)cc3[nH]2)ccc1OC [Example 47, Carbamic Acid, [[[5-(5,6-difluoro-IH-indol-2-yl)-2-methoxyphenyl]-amino]sulfonyl]-, 2-ethoxyethyl ester]"
166 to 168,5,15,"COc1ccc(-c2cc3cc(F)c(F)cc3[nH]2)cc1NS(=O)(=O)NC(=O)OCCCOCc1ccccc1 [Example 49, Carbamic Acid, [[[5-(5,6-difluoro-IH-indol-2-yl)-2-methoxyphenyl]-amino]sulfonyl]-3-(phenylmethoxy)propyl ester]"
178 to 179,18,65,"COc1ccc(C(=O)Nc2ccc(F)c(F)c2)cc1NS(=O)(=O)NC(=O)OCCCOCc1ccccc1 [Example 50, Carbamic Acid, [[[5-[[(3,4-difluorophenyl)amino]carbonyl]-2-methoxyphenyl]amino]sulfonyl]-, 3-(phenylmethoxy)propyl ester]"
186 to 188,2,12,"CCCCCCOC(=O)NS(=O)(=O)Nc1cc(-c2cc3cc(F)c(F)cc3[nH]2)ccc1OC [Example 51, Carbamic Acid, [[[5-(5,6-difluoro-IH-indo-2yl)-methoxyphenyl]amino]-sulfonyl]-hexyl ester]"
175 to 178,5,39,"CCCCCCOC(=O)NS(=O)(=O)Nc1cc(C(=O)Nc2ccc(F)c(F)c2)ccc1OC [Example 52, Carbamic Acid, [[[5-[[(3,4-difluorophenyl)amino]carbonyl]-2methoxyphenyl]amino]sulfonyl]-, Hexyl ester]"
177 to 180,10,12,"COc1ccc(-c2cc3cc(F)c(F)cc3[nH]2)cc1NS(N)(=O)=O [Example 54, Sulfamide, [5-(5,6-difluoro-IH-indol-2-yl)-2-methoxyphenyl]]"
167 to 170,19,29,"COc1ccc(C(=O)Nc2ccc(F)c(F)c2)cc1NS(N)(=O)=O [Example 55, Benzamide, 3-[(aminosulfonyl)amino]-N-(3,4-difluorophenyl)-4-methoxy]"
193 to 196,13,39,"COc1ccc(C(=O)Nc2ccc(F)c(F)c2)cc1NS(=O)(=O)NC(=O)Nc1cccc(Cl)c1 [Example 61, Benzamide, 3-[[[[[(3-chlorophenyl)amino]carbonyl]amino]sulfonyl]amino]-N-(3,4-difluorophenyl)-4-methoxy]"
